Laboratory results taken from ChEMBL document CHEMBL2073791, “Substituted pyridazino[3,4-b][1,5]benzoxazepin-5(6H)ones as multidrug-resistance modulating agents” (J Med Chem, 2004).

Each compound was assayed against ATP-dependent translocase ABCB1 (Homo sapiens, UniProt P08183) (assay: TP_TRANSPORTER: drug resistance (vincristine) in HeLa-MDR1 cells).
Type: functional, cell-based

Sequence of ATP-dependent translocase ABCB1 (P08183 whole entry): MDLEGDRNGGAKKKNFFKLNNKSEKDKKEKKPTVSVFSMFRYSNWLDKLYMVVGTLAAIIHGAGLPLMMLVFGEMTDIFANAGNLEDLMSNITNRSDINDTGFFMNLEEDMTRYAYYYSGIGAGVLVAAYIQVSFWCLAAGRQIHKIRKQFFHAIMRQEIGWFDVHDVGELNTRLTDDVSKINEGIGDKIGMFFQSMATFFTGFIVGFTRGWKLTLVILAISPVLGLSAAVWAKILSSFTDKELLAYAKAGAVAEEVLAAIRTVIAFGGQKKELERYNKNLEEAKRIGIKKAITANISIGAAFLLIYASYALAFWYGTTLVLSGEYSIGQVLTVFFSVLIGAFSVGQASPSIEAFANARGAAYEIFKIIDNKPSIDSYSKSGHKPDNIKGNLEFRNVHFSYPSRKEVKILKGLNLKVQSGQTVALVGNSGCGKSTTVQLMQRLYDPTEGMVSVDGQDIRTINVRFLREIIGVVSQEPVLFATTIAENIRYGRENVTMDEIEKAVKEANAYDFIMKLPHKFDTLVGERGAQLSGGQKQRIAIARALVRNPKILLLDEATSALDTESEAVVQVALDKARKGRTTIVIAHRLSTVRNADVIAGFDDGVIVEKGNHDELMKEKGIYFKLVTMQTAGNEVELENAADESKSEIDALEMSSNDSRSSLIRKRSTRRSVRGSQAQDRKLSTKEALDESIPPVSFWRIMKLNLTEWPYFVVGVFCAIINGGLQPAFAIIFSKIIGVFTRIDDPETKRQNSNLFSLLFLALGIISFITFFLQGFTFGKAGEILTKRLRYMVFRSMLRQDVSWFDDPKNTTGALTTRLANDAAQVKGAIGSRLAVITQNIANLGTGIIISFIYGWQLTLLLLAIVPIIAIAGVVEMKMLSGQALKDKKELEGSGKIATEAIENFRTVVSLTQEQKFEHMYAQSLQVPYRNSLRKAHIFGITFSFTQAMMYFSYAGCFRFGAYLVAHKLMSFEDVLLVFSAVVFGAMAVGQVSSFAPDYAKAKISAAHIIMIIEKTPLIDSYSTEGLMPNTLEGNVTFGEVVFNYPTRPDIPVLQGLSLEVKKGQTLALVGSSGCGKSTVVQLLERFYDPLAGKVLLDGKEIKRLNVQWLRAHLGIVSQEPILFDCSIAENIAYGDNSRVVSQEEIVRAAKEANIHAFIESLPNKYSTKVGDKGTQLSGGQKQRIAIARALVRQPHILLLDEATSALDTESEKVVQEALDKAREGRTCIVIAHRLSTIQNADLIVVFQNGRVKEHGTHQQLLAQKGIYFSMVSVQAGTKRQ

Activity, substrate [+]:
O=C1c2cc(Cl)nnc2Oc2cc(C(F)(F)F)ccc2N1CCCN1CCN(C(c2ccccc2)c2ccccc2)CC1
O=C1c2cc(Cl)nnc2Oc2ccc(C(F)(F)F)cc2N1CCCN1CCN(Cc2ccccc2)CC1
O=C1c2cc(Cl)nnc2Oc2ccc(C(F)(F)F)cc2N1CCCN1CCN(c2ccccc2)CC1
Cc1cc(C)c2c(c1)N(CCCN1CCN(c3ccccc3)CC1)C(=O)c1cc(Cl)nnc1O2
